Values joined by “and” are separate entries in the source; they are usually repeats but may differ in a detail not shown here. Identical values can stand only once. Like-named read-outs stand apart in the source and are kept apart here.
Molecular target: HIV-1LAI envelope gp120 (Human immunodeficiency virus type 1 group M subtype B, UniProt P03377)
Assay type: binding
Details: for number of radioactive decays (counts) counted: human CD4 21-mer scan, empty control 2075; for Relative % of Control: CXCR4 (1-18) alanine variants, mean of two syntheses and binding experiments ± average deviation, wild-type = 100%; for Counts per 20′ Average-background: CCR5 18-mer scan, radiolabeled HIV-1LAI gp120; for Binding Results For Window Length (counts bound-background), 9: 9-mer starting at the first residue of the printed sequence; for Binding Results For Window Length (counts bound-background), 12: 12-mer starting at the first residue of the printed sequence
[1] = Panel A, 21-mers of CD4, empty control 515 and 617
[2] = Panel D, 9-mers and 12-mers of CD4, empty control […]
[3] = Panel B, 15-mers and 18-mers of CD4, empty control 575
[4] = STRL33 18-mer scan, background subtracted, first of two count columns
[5] = STRL33 18-mer scan, background subtracted, second of two count columns
[6] = Panel E, 9-mers and 12-mers of CD4, empty control 571
[7] = Panel C, 15-mers and 18-mers of CD4, empty control 556
[8] = CXCR4 18-mer scan, background subtracted, empty control 0
[9] = CXCR4 18-mer scan, empty control 412
[10] = Panel F, sequential alanine replacements of CD4 polypeptides, duplicate series, empty control 569
[11] = STRL33 amino terminus, background subtracted

## PLAFTVEKLTGSGELWWQAER
[1]
  COUNTS of radiolabeled gp120 retained: 2647 counts

## GNFPLIIKN
[2]
  COUNTS of radiolabeled gp120 retained: 600 counts

## DQGNFPLIIKNLKIEDSD
[3]
  COUNTS of radiolabeled gp120 retained: 598 counts

## NFPLIIKNLKIE
[2]
  COUNTS of radiolabeled gp120 retained: 647 counts

## NLKIEDSDTYICEVE
[3]
  COUNTS of radiolabeled gp120 retained: 1160 counts

## SIVYKKEGEQVEFSFPLAFTV
[1]
  COUNTS of radiolabeled gp120 retained: 8165 counts

## QAERASSSKSWITFDLINKEV [human CD4 241-261]
  number of radioactive decays (counts) counted: 2588 counts

## SDTHLLQGQSLT
[2]
  COUNTS of radiolabeled gp120 retained: 540 counts

## FYTSMLILTCITVDRFIV [STRL33 segment 113-130]
[4]
  radioactive counts recorded in twenty minutes: 744.5 counts
[5]
  radioactive counts recorded in twenty minutes: 907.5 counts

## KLTGSGELW
[6]
  COUNTS of radiolabeled gp120 retained: 491 counts

## ACLNPVLYAFVSLKFRKN [STRL33 segment 281-298]
[4]
  radioactive counts recorded in twenty minutes: 4173.5 counts
[5]
  radioactive counts recorded in twenty minutes: 4515.5 counts

## VYKKEGEQVEFSFPL
[7]
  COUNTS of radiolabeled gp120 retained: 714 counts

## MEGISIYTSDNYTEEAGS
  Relative % of Control: 88 ± 4%

## VQLLVFGLTANSDTH
[3]
  COUNTS of radiolabeled gp120 retained: 1006 counts

## GNFPLIIKNLKIEDS
[3]
  COUNTS of radiolabeled gp120 retained: 624 counts

## VEFSFPLAFTVEKLTGSGELW
[1]
  COUNTS of radiolabeled gp120 retained: 633 counts

## HVIYTVNLYSSVLILAFI [CXCR4 segment 113-130]
[8]
  radioactive counts recorded in twenty minutes: 118 counts
[9]
  radioactive counts recorded in twenty minutes: 530 counts

## CSSSNRLDQAMQVTETLG [CCR5 segment 269-]
Background subtracted
  Counts per 20′ Average-background: 90 counts per 20′

## LTGSGELWW
[6]
  COUNTS of radiolabeled gp120 retained: 550 counts

## KEEVQLLVF
[2]
  COUNTS of radiolabeled gp120 retained: 1273 counts

## GAQVEFSFPLAFTVE
Panel G, alanine replacements and serial truncations (Z) of CD4 polypeptides, empty control 580
  COUNTS of radiolabeled gp120 retained: 18079 counts and 17733 counts

## AEVQLLVFGLTANSD
[10]
  COUNTS of radiolabeled gp120 retained: 16220 counts and 14590 counts

## MEGISIYTSDNYTEEMGA
  Relative % of Control: 79 ± 1%

## KEGEQVEFSFPL
[6]
  COUNTS of radiolabeled gp120 retained: 710 counts

## VEFKIDIVV
[6]
  COUNTS of radiolabeled gp120 retained: 548 counts

## IKNLKIEDSDTYICEVED
[3]
  COUNTS of radiolabeled gp120 retained: 699 counts

## VEFSFPLAF
[6]
  COUNTS of radiolabeled gp120 retained: 1064 counts

## NYYTSEPCQKINVKQIAA [CCR5 segment 13-30]
Background subtracted
  Counts per 20′ Average-background: 6 counts per 20′

## EEHQAFLQFSKV
[11]
  Binding Results For Window Length (counts bound-background), 9: 6060 counts
  Binding Results For Window Length (counts bound-background), 12: 5598 counts

## EQVEFSFPL
[6]
  COUNTS of radiolabeled gp120 retained: 1032 counts

## EFSFPLAFT
[6]
  COUNTS of radiolabeled gp120 retained: 658 counts

## FQTLKIVILGLVLPLLVM [CCR5 segment 193-]
Background subtracted
  Counts per 20′ Average-background: 45 counts per 20′

## KLQMGKKLPLHLTLPQALPQY
  number of radioactive decays (counts) counted: 1949 counts

## THLAQGQSLTLTLES
[10]
  COUNTS of radiolabeled gp120 retained: 7701 counts and 5120 counts

## FSKVFLPCMYLVVFVCGL [STRL33 segment 29-46]
[4]
  radioactive counts recorded in twenty minutes: 534.5 counts
[5]
  radioactive counts recorded in twenty minutes: 633.5 counts

## ICDRFYPNDLWVVVFQFQ [CXCR4 segment 185-202]
[8]
  radioactive counts recorded in twenty minutes: 306 counts
[9]
  radioactive counts recorded in twenty minutes: 718 counts

## HLLQGQSLT
[2]
  COUNTS of radiolabeled gp120 retained: 564 counts

## SEPCQKINVKQIAARLLP [CCR5 segment 17-34]
Background subtracted
  Counts per 20′ Average-background: −44 counts per 20′

## LLVFGLTAN
[2]
  COUNTS of radiolabeled gp120 retained: 576 counts

## VLAFQKASSIVY
[6]
  COUNTS of radiolabeled gp120 retained: 548 counts

## HEDYGFSSFNDSSQEEHQ
[11]
  Binding Results For Window Length (counts bound-background), 9: 729 counts
  Binding Results For Window Length (counts bound-background), 12: 1077 counts
STRL33 amino terminus, 15-mer starting at the first residue of the printed sequence, background subtracted
  Binding Results For Window Length (counts bound-background), 15: 947 counts
STRL33 amino terminus, 18-mer starting at the first residue of the printed sequence, background subtracted
  Binding Results For Window Length (counts bound-background), 18: 537 counts

## FWKNFQTLKIVILGLVLP [CCR5 segment 189-]
Background subtracted
  Counts per 20′ Average-background: 40 counts per 20′

## LTCEVWGPTSPKLMLSLKLEN
  number of radioactive decays (counts) counted: 2412 counts

## VDRFIVVVKATKAYNQQA
[4]
  radioactive counts recorded in twenty minutes: 103.5 counts
[5]
  radioactive counts recorded in twenty minutes: 53.5 counts

## EAVQLLVFGLTANSD
[10]
  COUNTS of radiolabeled gp120 retained: 14220 counts and 13213 counts

## FHCCLNPILYAFLGAKFK [CXCR4 segment 293-310]
[8]
  radioactive counts recorded in twenty minutes: 123 counts
[9]
  radioactive counts recorded in twenty minutes: 535 counts

## VVLAFQKASSIVYKKEGE
[7]
  COUNTS of radiolabeled gp120 retained: 560 counts
